Measured values as given in patent publication US20250295648A1 (priority 2024, published 2025).

Experiments:
[1] = both, human, in vivo
Text: Based on the befiradol Cmax values observed in healthy male volunteers reported in WO 2016/005527, the sustained release compositions disclosed above in Tables 26-28 would be expected to provide Cmax values not less than those shown in Table 29 after a single oral administration to patients with Parkinson's disease. […] Therefore, the Cmax values in Table 29 for SR1-SR9 may be higher (e.g., by 10% or 20%) when administered to patients with Parkinson's disease since young adults rarely experience Parkinson's disease, which usually develops around age 60 or older.

PD patients with LID [2] = test: PD Home Dyskinesia eDiary (good ON time); type: in vivo, human
Text: A PD Home Dyskinesia Diary (electronic) would be completed by the patients and/or caregiver with concordance in ON time with dyskinesia between study staff and patient. The diary is integrated in the Kinesia 360 wearable dyskinesia assessment system and is based on the PD Home Diary developed by Hauser (Hauser […]. Parkinson's Disease Home Diary: Further Validation and Implications for Clinical Trials. Mov. Discord. 19 (12), 2004). The diary would be used to score 5 different conditions in 30-minute time intervals during 2×24 hours prior to Visit 2, Visit 6 and Visit 7: • ASLEEP; • OFF; • ON (i.e., adequate control of PD symptoms) without dyskinesia; • ON with non-troublesome dyskinesia; • ON with troublesome dyskinesia.

PD patients with LID [3] = test: ICIQ Overactive Bladder Module (ICIQ-OAB); type: in vivo, human; details: for ICIQ-OAB, mean change from baseline: per-protocol set
Text: The ICIQ-OAB provides a brief and robust measure to assess the impact of symptoms of overactive bladder on quality of life and outcome of treatment. It is a 4-item patient reported outcome covering 4 domains of bladder function: frequency, nocturia, urgency, and urge urinary incontinence. Each item is scored by frequency of 0-4, for a total score of 0-16. Ratings would be based on the previous month or since the last clinic visit. Efficacy would be assessed as change from the baseline total score.

Cc1ccc(CNCC2(F)CCN(C(=O)c3ccc(F)c(Cl)c3)CC2)nc1 [NLX-112, (3-chloro-4-fluoro-phenyl)-[4-fluoro-4-{[(5-methyl-pyridin-2-ylmethyl)-amino]-methyl}piperidin-1-yl]methanone]
Cmax in female subjects, higher than males [1]: 20%-40 | good ON time, mean absolute change from baseline (PD patients with LID [2]; Day 28, n=13, eDiary): +5.7% | good ON time, significance of change from baseline within or between groups (PD patients with LID [2]; Day 28 or Day 42): no statistically significant changes | good ON time, mean absolute change from baseline (PD patients with LID [2]; Day 42, n=12, eDiary): +5.2% | incontinence (ICIQ-OAB) (PD patients with LID [3]; Days 28 or 42): no consistent statistically significant effect | ICIQ-OAB, mean (PD patients with LID [3]; per-protocol set (n = 15), Baseline): 18.3 | ICIQ-OAB, mean change from baseline (PD patients with LID [3]; Δ D 28 (end of up-titration)): 0.7 | ICIQ-OAB, mean change from baseline (PD patients with LID [3]; Δ D 42 (end of stable dosing)): −0.8
